Measured values published in patent US8883745B2, “C—glycolipids with enhanced Th-1 profile” (New York University, priority 2006, dated 2014).

How the values were obtained:
[1] = test system: IFN-γ; assay: IFN-γ levels in sera upon i.v. glycolipid administration to C57BL/6 mice (ELISA); type: in vivo; design: IFN-γ levels, test 1 / IFN-γ levels, test 2 / IFN-γ levels, average / IFN-γ levels, Total / IFN-γ (B6): unit not given here; conditions: for IFN-γ/IL-4 (B6): C57BL/6, ratio calculated from Tables 1-6; for IFN-γ levels, average / IFN-γ levels, test 1 / IFN-γ levels, test 2 / IFN-γ levels, Total: C57BL/6, serum; for IFN-γ levels, Total: total over hours 0-72
Method: (§1) Five- to six-week-old female C57BL/6 mice and BALB/c mice were purchased from Taconic. Each glycolipid was stored at 1 mg/ml in 100% DMSO. Mice were injected intravenously with 1 μg of each glyocolipid diluted in 200 μL sterile phosphate buffered saline (PBS). At indicated time points, sera were collected from each animal, and concentrations of IFN-γ, IL-4, and IL-12 in the sera were evaluated by enzyme-linked immunosorbent assay (ELISA). Serum concentrations of IFN-γ, IL-4, and IL-12 were evaluated using an ELISA kit (eBioscience, San Diego, Calif.). Briefly, 96 well flat-bottom ELISA plates (NUNC) were coated with capture antibody according to the manufacture's recommendation and incubated overnight at 4° C. The plates were washed with PBS+0.05% Tween 20 (PBS-T), then incubated with manufacturer provided blocking solution for 1 hr at room temperature to block non-specific binding sites. After washing with PBS-T, sera diluted 1:10 was added to the wells and incubated for 2 hrs at room temperature. Plates were then incubated at room temperature for 1 hr with biotintylated detection antibody, washed, incubated with avidin conjugated to horse radish peroxidase (HRP) for 30 min at room temperature, washed, and finally incubated with tetramethylbenzidine substrate solution in the dark for 10 minutes at room temperature. The antibodies, avidin-HRP, and substrate solution were all diluted according to the manufacture's recommendation. Reactions were stopped with 2.0N sulfuric acid and the cytokine concentration in each well was determined by comparing the absorbance at 450 nm in each well to known standards. The levels of Th1- and Th2-type cytokines were determined in two different genetic backgrounds, i.e., in C57BL/6 mice and BALB/c mice. The following compounds were administered: A=compound (A-1 trans-conformer), B=compound (A-2), C=compound (A-3), D=compound (A-4), E=compound (A-5), Z=control (PBS alone), CRONY=α-C-GalCer, KRN=α-GalCer, GCK109 (A-1 trans-conformer), GCK151 (A-1 cis-conformer), GCK152 (A-7). The levels of cytokines were measured at 0, 2, 6, 12, 24, 48, and 72 hours after the compound administration. The levels of Th1-type cytokines IFN-γ and IL-12 are summarized in FIGS. 2A-C and 3A-C, respectively. Table 7 provides IFN-γ/IL-4 and IL-12/IL-4 ratios for various compounds, which can be used as indicators of their ability to selectively stimulate Th1-type immune responses.

[2] = test system: IL-12; assay: IL-12 levels in sera upon i.v. glycolipid administration to BALB/c mice (ELISA); type: in vivo; design: IL-12 levels, test 1 / IL-12 levels, test 2 / IL-12 levels, average / IL-12 levels, Total: unit not given here; conditions: for IL-12/IL-4 (BALB/c): ratio calculated from Tables 1-6; for IL-12 levels, average / IL-12 levels, test 1 / IL-12 levels, test 2 / IL-12 levels, Total: serum; for IL-12 levels, Total: total over hours 0-72
Method: as §1

[3] = Solubility in an aqueous solution; type: physicochemical
[4] = test system: rodent malaria parasites, P. yoeli and P. berghei; conditions: administration to mice; cited from earlier work
[5] = rodents and monkeys, independently of dosage; cited from earlier work
[6] = test system: solid tumors; conditions: Phase I study; cited from earlier work

SMILES: CCCCCCCCCCCCCCCCCCCCCCCCCC(=O)N[C@@H](CO[C@H]1O[C@H](CO)[C@H](O)[C@H](O)[C@H]1O)[C@H](O)[C@H](O)CCCCCCCCCCCCCC [KRN, (2S,3S,4R)-1-O-(α-D-galactopyranosyl)-2-(N-hexacosanoylamino)-1,3,4-,-octadecanetriol, reference compound]
- IFN-γ/IL-4 (B6) [1]: 3
- IFN-γ levels, average ([1]; hour 0): 31
- IFN-γ levels, test 1 ([1]; hour 0): 31
- IFN-γ levels, test 2 ([1]; hour 0): 31
- IFN-γ levels, average ([1]; hour 2): 874.5
- IFN-γ levels, test 1 ([1]; hour 2): 938
- IFN-γ levels, test 2 ([1]; hour 2): 811
- IFN-γ levels, average ([1]; hour 6): 1919
- IFN-γ levels, test 1 ([1]; hour 6): 1811
- IFN-γ levels, test 2 ([1]; hour 6): 2027
- IFN-γ levels, average ([1]; hour 12): 5352.5
- IFN-γ levels, test 1 ([1]; hour 12): 5179
- IFN-γ levels, test 2 ([1]; hour 12): 5526
- IFN-γ levels, average ([1]; hour 24): 2216
- IFN-γ levels, test 1 ([1]; hour 24): 2214
- IFN-γ levels, test 2 ([1]; hour 24): 2218
- IFN-γ levels, average ([1]; hour 48): 126
- IFN-γ levels, test 1 ([1]; hour 48): 252
- IFN-γ levels, test 2 ([1]; hour 48): 0
- IFN-γ levels, average ([1]; hour 72): 166
- IFN-γ levels, test 1 ([1]; hour 72): 332
- IFN-γ levels, test 2 ([1]; hour 72): 0
- IFN-γ levels, Total [1]: 10686
- IL-12/IL-4 (BALB/c) [2]: 2
- IL-12 levels, average ([2]; hour 0): 5
- IL-12 levels, test 1 ([2]; hour 0): 5
- IL-12 levels, test 2 ([2]; hour 0): 5
- IL-12 levels, average ([2]; hour 2): 124
- IL-12 levels, test 1 ([2]; hour 2): 69
- IL-12 levels, test 2 ([2]; hour 2): 179
- IL-12 levels, average ([2]; hour 6): 3067.5
- IL-12 levels, test 1 ([2]; hour 6): 2567
- IL-12 levels, test 2 ([2]; hour 6): 3568
- IL-12 levels, average ([2]; hour 12): 437.5
- IL-12 levels, test 1 ([2]; hour 12): 282
- IL-12 levels, test 2 ([2]; hour 12): 593
- IL-12 levels, average ([2]; hour 24): 265.5
- IL-12 levels, test 1 ([2]; hour 24): 119
- IL-12 levels, test 2 ([2]; hour 24): 412
- IL-12 levels, average ([2]; hour 48): 68
- IL-12 levels, test 1 ([2]; hour 48): 57
- IL-12 levels, test 2 ([2]; hour 48): 79
- IL-12 levels, average ([2]; hour 72): 61
- IL-12 levels, test 1 ([2]; hour 72): 57
- IL-12 levels, test 2 ([2]; hour 72): 65
- IL-12 levels, Total [2]: 4030
- solubility in an aqueous solution relative to the tested compounds of the invention [3]: more soluble
- anti-malaria activity (inhibition of intra-hepatocytic stages) [4]: strong anti-malaria activity
- toxicity [5]: does not induce toxicity
- effect in patients with solid tumors [6]: little effect

SMILES: CCCCCCCCCCCCCCCCCCCCCCCCCCCCC(=O)N[C@@H](/C=C/[C@H]1O[C@H](CO)[C@H](O)[C@H](O)[C@H]1O)[C@H](O)[C@H](O)CCCCCCCCCCCCCC [A-2, (3S,4S,5R)-1-C-(α-D-galactopyranosyl)-3-(N-nonacosanoylamino)-4,5-nonadec-(1,2-E)-enediol]
- IFN-γ/IL-4 (B6) [1]: 16
- IFN-γ levels, average ([1]; hour 0): 31
- IFN-γ levels, test 1 ([1]; hour 0): 31
- IFN-γ levels, test 2 ([1]; hour 0): 31
- IFN-γ levels, average ([1]; hour 2): 138.5
- IFN-γ levels, test 1 ([1]; hour 2): 138
- IFN-γ levels, test 2 ([1]; hour 2): 139
- IFN-γ levels, average ([1]; hour 6): 944.5
- IFN-γ levels, test 1 ([1]; hour 6): 955
- IFN-γ levels, test 2 ([1]; hour 6): 934
- IFN-γ levels, average ([1]; hour 12): 2932
- IFN-γ levels, test 1 ([1]; hour 12): 2427
- IFN-γ levels, test 2 ([1]; hour 12): 3437
- IFN-γ levels, average ([1]; hour 24): 8415
- IFN-γ levels, test 1 ([1]; hour 24): 7023
- IFN-γ levels, test 2 ([1]; hour 24): 9807
- IFN-γ levels, average ([1]; hour 48): 464
- IFN-γ levels, test 1 ([1]; hour 48): 424
- IFN-γ levels, test 2 ([1]; hour 48): 504
- IFN-γ levels, average ([1]; hour 72): 100.5
- IFN-γ levels, test 1 ([1]; hour 72): 87
- IFN-γ levels, test 2 ([1]; hour 72): 114
- IFN-γ levels, Total [1]: 13027
- IL-12/IL-4 (BALB/c) [2]: 30
- IL-12 levels, average ([2]; hour 0): 5
- IL-12 levels, test 1 ([2]; hour 0): 5
- IL-12 levels, test 2 ([2]; hour 0): 5
- IL-12 levels, average ([2]; hour 2): 74
- IL-12 levels, test 1 ([2]; hour 2): 141
- IL-12 levels, test 2 ([2]; hour 2): 7
- IL-12 levels, average ([2]; hour 6): 7251.5
- IL-12 levels, test 1 ([2]; hour 6): 7080
- IL-12 levels, test 2 ([2]; hour 6): 7423
- IL-12 levels, average ([2]; hour 12): 10800
- IL-12 levels, test 1 ([2]; hour 12): 11600
- IL-12 levels, test 2 ([2]; hour 12): 10000
- IL-12 levels, average ([2]; hour 24): 442.5
- IL-12 levels, test 1 ([2]; hour 24): 454
- IL-12 levels, test 2 ([2]; hour 24): 431
- IL-12 levels, average ([2]; hour 48): 66.5
- IL-12 levels, test 1 ([2]; hour 48): 0
- IL-12 levels, test 2 ([2]; hour 48): 133
- IL-12 levels, average ([2]; hour 72): 222.5
- IL-12 levels, test 1 ([2]; hour 72): 3
- IL-12 levels, test 2 ([2]; hour 72): 442
- IL-12 levels, Total [2]: 18864
